Experimental data taken from US20170215470A1, “USE OF A COMPOSITION CONTAINING A LONG-CHAIN POLYOL AS A BASE FOR E-LIQUIDS” (LABORATOIRES CERES, priority 2014, published 2017).
Where two headings read alike, the source gives them in different places.

Assay: Thermal stability by thermogravimetric (TGA) and thermal differential analysis (TDA)
Type: physicochemical
Procedure: The thermogravimetric analysis is a method of thermal analysis in which the changes of the physical and chemical properties of the materials are measured as a function of the temperature. The TGA can supply information about the physical phenomena such as the vaporization or the combustion. Also, it is possible to obtain information about the chemical phenomena such as the dehydration or the decomposition. In the thermal differential analysis (TDA) the study material and an inert reference undergo identical thermic cycles. During the analysis the temperature difference between the sample and the reference is recorded. These temperature differences followed as a function of the rime relative to the inert reference inform us about the thermal phenomena undergone by the sample, whether exothermic or endothermic. […] The endothermic character is associated with a change of state of the compound (ex. vaporization) whereas the exothermic character is induced by reactions of decomposition or by intra- and intermolecular chemical reactions. The thermogravimetric analyzer […] of TA INSTRUMENT was used to conjointly determine the vaporization temperatures of the products, the enthalpy values and the rate of products not vaporized at 350° C. The analysis conditions are as follows: test size: 50 mg open crucible under flow of air: 100 ml/min rate of heating: 10° C./min temperature range: 25 to 350° C. (temperature conditions representative of a normal use as well as of misuse of an electronic cigarette). The apparatus is cleaned between each analysis by being heated to 600° C. under a flow of air in order to eliminate any trace of non-vaporized residue deposited on the crucible, the balance arms or the kiln walls.

Row | Compound | TDA vaporization temperature (° C.) (1) (endothermic peak, 50 mg, air 100 ml/min, 10° C./min, 25 to 350° C.) | TDA transformation temperature (° C.) (2) (exothermic peak (reaction and/or decomposition), 50 mg, air 100 ml/min, 10° C./min) | TDA vaporization temperature (° C.) (1) | TGA non-evaporated residue at 250° C. (%)
1 | CC(O)CCO (stereo not shown) [1,3-butane diol] | 171 °C | without any thermal decomposition | – | –
2 | CN1CCCC1c1cccnc1 (stereo not shown) [Nicotine] | – | – | 190 °C | 1.08%
